Assay results: patent US5625061A, “Compounds useful in preparing antiproliferative agents and garft inhibitors” (Agouron Pharmaceuticals, Inc., priority 1995, dated 1997)

Experiments:
[1] = test system: 6C3HED lymphosarcoma implanted in C3H/He female mice; test: In vivo antitumor activity, 6C3HED lymphosarcoma; design: species or system mouse; settings: intraperitoneal, once daily for nine days, day 11
Method: (§1) On day zero, 2 mm^2 trocar fragments of 6C3HED lymphosarcoma were implanted subcutaneously in the axillary region into groups of six C3H/He female mice. Starting on day 1, the test compound was administered intraperitoneally in 40% Encapsin given once daily for nine days. Control animals received identical treatment without test: compound. The percentage inhibition given in Table 5 below was calculated by comparing the mass of the control tumors (receiving diluent only) on day 11 to those of animals receiving test compound.

[2] = test system: C3H/BA mammary adenocarcinoma implanted in C3H/He female mice; test: In vivo antitumor activity, C3H/BA mammary adenocarcinoma; design: species or system mouse; settings: intraperitoneal, once daily for nine days, day 14
Method: as §1, with “C3H/BA mammary adenocarcinoma” for “6C3HED lymphosarcoma”, “test” for “test:”, “percentage of” for “percentage”, “inhibition” for “inhibition given in Table 5 below”, “14” for “11”

GARFT = settings: F. M. Muggia, New Drugs, 1992; cited from earlier work

With `Nc1nc2c(c(=O)[nH]1)SC(CCc1ccc(C(=O)N[C@@H](CCC(=O)O)C(=O)O)s1)CN2` (stereo partly drawn) [Compound 21, 4-[2-(2-Amino-4-oxo-4,6,7,8-tetrahydro-3H-pyrimido[5,4-6][1,4]thiazin-6-yl)-ethyl]-2,5-thienoylamino -L-glutamic acid] the “% Inhibition (tumor mass)” value ([1]; 12.5 mg/kg) was 100%, the “% Inhibition (tumor mass)” value ([1]; 25 mg/kg) was 100% and the “% Inhibition column: toxicity” value ([1]; 50 mg/kg) was “toxic”. For the same compound, the “% Inhibition (tumor mass)” value ([2]; 5 mg/kg) was 16%, the “% Inhibition (tumor mass)” value ([2]; 10 mg/kg) was 84% and the “% Inhibition (tumor mass)” value ([2]; 20 mg/kg) was 100%.
In the case of `Nc1nc2c(c(=O)[nH]1)CC(CCc1ccc(C(=O)N[C@@H](CCC(=O)O)C(=O)O)cc1)CN2` (stereo partly shown) [5,10-dideazatetrahydrofolic acid], the “GARFT inhibition (in words)” value (GARFT) is given as “specific tight binding inhibitor of GARFT”.
